US20240180800A1, “Oral Care Compositions Containing Stannous Ion Source” (Colgate-Palmolive Company, priority 2022, published 2024)

Experiments:
Assay type in all cases: physicochemical
[1] = FTIR of SnF2-TSPP solution with antioxidant upon aging at 60° C.
Description: (§1) The effect of antioxidants on the stannous stability in the presence of tetrasodium pyrophosphate (TSPP) was examined. Samples of Sn(II) were prepared by dissolving TSPP and SnF2 in water with the final concentration of SnF2 equal to 2 wt. %. Antioxidant (butylated hydroxytoluene (BHT), butylated hydroxyanisole (BHA), or sodium ascorbyl phosphate (SAP)) was added to the samples with the molar ratio of SnF2:TSPP:antioxidant equal to 1:1:0.3. The pH of the solutions was adjusted with NaOH to pH 7. The solutions were not fully clear due to the high concentration of SnF2 and limited solubility of certain antioxidants. Some amount of the precipitate/undissolved material was evident in the vials.
Fourier transform infrared spectroscopy (FTIR): Infrared spectra were collected using a Bruker Vertex 70 FTIR spectrometer (Bruker Optics, Billerica, MA) equipped with a GladiATR diamond ATR accessory (Pike technologies, Madison, WI). The spectral range was […] and a resolution of 4 cm^−1 was used. All measurements were carried out at room temperature. The absorption spectrum of solution containing SnF2 and TSPP (herein after referred to as SnF2-TSPP) in the 850-1240 cm^−1 region at different time points: fresh, 1 week and 2 weeks aged at 60° C. was examined. […] The transformation of the complex was manifested in the peak shifts and intensity changes of phosphate bands. […]

[2] = Iodine titration of Sn(II) in SnF2-TSPP solution with antioxidant upon aging at 60° C.; details: for Sn(II) %: after 2 weeks of aging at 60° C.
Description: as §1
Iodine titration: The stability of Sn (II) was further examined by iodine titration assay. Titration measurements were performed through indirect titration. 2 M citric acid solution was added to the samples in excess and 0.1 N Iodine was added until the solutions turned light brown. The samples were covered with parafilm and aluminum foil and left mixing in the dark for 2 hours. Then, titration with 0.1 N sodium thiosulfate standard was performed using a 25 mL Titrette Bottletop Burette (BrandTech Scientific, Inc., Essex, CT, USA) until the solutions turned clear. Sn(II) concentration was calculated based on the amount of sodium thiosulfate and iodine used in the reaction. The amount of Sn(II) present in the SnF2-TSPP solution at different time points: fresh, 1 week and 2 weeks aged at 60° C. with and without the antioxidant (SAP, BHA, or BHT) was measured. The result is in good agreement with the FTIR result discussed above. The amount of Sn(II) was highest in the sample with SAP after 2 weeks of 60° C. aging.
(§2) In order to identify the optimal concentration of antioxidants (SAP and sodium ascorbate) that can increase stannous stability in aqueous solutions, samples of Sn(II) with TSPP and various concentrations of SAP or sodium ascorbate were tested for the stability of Sn(II). Samples of Sn(II) were prepared by dissolving TSPP and SnF2 in water with the final concentration of SnF2 equal to 2 wt %. Antioxidant (SAP or sodium ascorbate) was added to the samples with the molar ratio of SnF2:TSPP:antioxidant equal to 1:1:x, where x was between 0.05 and 0.3. The pH of the solutions was adjusted with NaOH to pH=7.
Iodine titration: The stability of Sn (II) was further examined by iodine titration assay. Titration measurements were performed as described in Example 1.

[3] = 119Sn NMR relative amount of Sn(II) in SnF2-TSPP solution with antioxidant upon aging at 60° C.; details: for Sn(II) left relative to fresh sample: SnF2:TSPP:antioxidant 1:1:0.3, pH 7, after 2 weeks of aging at 60° C.; for Sn(II) content relative to fresh sample: pH 7, after 2 weeks of aging at 60° C.
Description: as §1
Nuclear Magnetic Resonance (NMR): The stability of Sn (II) was further examined by Nuclear Magnetic Resonance (NMR). NMR measurements were performed on samples in the presence of 10% deuterium oxide (D20). All NMR spectra were acquired on a Bruker Avance spectrometer (Bruker-Biospin, Billerica, MA, USA) with a 5 mm liquid nitrogen cryogenic probe operating at 202 MHz for ^31P, and 186.5 MHz ^119Sn at 25° C. ^119Sn and ^31P NMR spectra were acquired on the samples of SnF2-TSPP with three antioxidants: SAP, BHA, or BHT. FIG. 3-5 show ^119Sn and ^31P NMR spectra of the samples upon aging. In the ^119Sn NMR spectra, the peak positioned at around −630 ppm corresponds to Sn(II) in solution at neutral pH. Once Sn(II) was oxidized to Sn(IV) upon aging, the Sn(II) peak intensity decreased and small Sn(IV) spikes appeared between −680 and −750 ppm. The relative amounts of Sn(II) compared to fresh sample were calculated by integrating the peak corresponding to Sn(II) in ^119Sn NMR spectra. The capacity of three […] to stabilize Sn(II) was compared by measuring the Sn(II) content in the samples. About 80% of Sn(II) was left in the samples in the presence of BHA and SAP after 2 weeks of aging at 60° C. BHT sample had 70% Sn(II) remaining after 2 weeks of aging. […] In the ^31P NMR spectra, the peak positioned at −8 ppm corresponds to TSPP.
as §2
Nuclear Magnetic Resonance (NMR): The stability of Sn (II) was further examined by Nuclear Magnetic Resonance (NMR). NMR measurements were performed as described in Example 1. ^119Sn and ^31P NMR spectra were acquired on the samples of SnF2-TSPP with SAP or sodium ascorbate at various SAP/Sn molar ratios, specifically between 0.05 and 0.3, upon aging at 60° C. FIGS. 9 and 10 show ^119Sn and ^31P NMR spectra of the samples upon aging. In the ^119Sn NMR spectra, the peak positioned at around −630 ppm corresponds to Sn(II) in solution at neutral pH. Once Sn(II) was oxidized to Sn(IV), the Sn(II) peak intensity decreased and small Sn(IV) spikes appeared between −680 and −750 ppm. […] The relative amounts of Sn(II) compared to fresh sample were quantified based on the Sn(II) NMR peak integral (FIG. 11A).

[4] = Head-space O2 consumption (differential pressure) during Sn(II) oxidation; details: 29 mM SnF2, 29 mM TSPP, SAP/Sn molar ratios 0.05 and 0.3, 25° C., about 6.5 hours, pH about 6.5
Description: Head-space O2 consumption: Stannous stability in presence of small amounts of SAP was further examined by measuring the rate of oxygen consumption during Sn(II) oxidation process. […] SnF2 was added last as a powder, and the flask was immediately scaled.

SMILES: COc1ccc(O)c(C(C)(C)C)c1 [BHA, butylated hydroxyanisole]
- change of phosphate vibrational bands / stability of stannous-pyrophosphate complex ([1]; SnF2:TSPP:antioxidant 1:1:0.3, pH 7, aged 2 weeks at 60° C.): improved the stability of stannous-pyrophosphate complex but were less effective than SAP
- amount of Sn(II) remaining ([2]; SnF2:TSPP:antioxidant 1:1:0.3, pH 7, after 2 weeks of 60° C. aging, compared to SnF2-TSPP solution alone): positive effect on Sn(II) stability
- Sn(II) left relative to fresh sample [3]: About 80%

SMILES: Cc1cc(C(C)(C)C)c(O)c(C(C)(C)C)c1 [BHT, butylated hydroxytoluene]
- amount of Sn(II) remaining ([2]; buffer, 336 h, pH 7): positive effect on Sn(II) stability
- Sn(II) left relative to fresh sample [3]: 70%

SMILES: O=C1O[C@H]([C@@H](O)CO)C([O-])=C1OP(=O)([O-])[O-].[Na+].[Na+].[Na+] [SAP, sodium ascorbyl phosphate]
- amount of Sn(II) remaining ([2]; buffer, 336 h, pH 7): highest
- Sn(II) left relative to fresh sample [3]: About 80%
- Sn(II) content relative to fresh sample ([3]; higher SAP/Sn ratio (0.2, 0.3)): 72%
- Sn(II) content relative to fresh sample ([3]; lower mole ratio of SAP/Sn (0.05, 0.1)): about 90%
- head-space differential pressure change (O2 consumption) [4]: no significant pressure drop

SMILES: O=C1O[C@H]([C@@H](O)CO)C([O-])=C1O.[Na+] [sodium ascorbate]
- stability of stannous-pyrophosphate complex ([1]; antioxidant/Sn molar ratio 0.05 to 0.3, pH 7, fresh, 1 week and 2 weeks at 60° C.): increased the stability of the stannous-pyrophosphate complex
- Sn(II) % ([2]; higher ascorbate/Sn ratio (0.2, 0.3)): 70-75%
- Sn(II) % ([2]; lower ascorbate/Sn ratio (0.05, 0.1)): about 80%
